Counter-ions that a name gives are not always drawn. Like-named read-outs stand apart in the source and are kept apart here.
Tested on: hPSC-SCs
[1] = HTS viability of hPSC-SCs in the presence of 30 mM glucose, Prestwick library, Table S4

For O=C(CCCN1CCN(c2ccccn2)CC1)c1ccc(F)cc1 [Azaperone], the z.score.t [1] was −0.9039.
With COc1ccc([C@@H]2Sc3ccccc3N(CCN(C)C)C(=O)[C@@H]2OC(C)=O)cc1 [Diltiazem hydrochloride] the z.score.t [1] was 0.6906.
With CC1COc2c(N3CCN(C)CC3)c(F)cc3c(=O)c(C(=O)O)cn1c23 (stereo not drawn) [Ofloxacin] the z.score.t [1] was −1.243.
CCOc1ccc2c(c1)C(C)=CC(C)(C)N2 [Ethoxyquin] was tested, and the z.score.t [1] was −1.23.
CN(C)CCCN1c2ccccc2CCc2ccc(Cl)cc21 [Clomipramine hydrochloride] was tested, and the z.score.t [1] was −1.637.
With CN1CCCC(CC2c3ccccc3Sc3ccccc32)C1 (stereo not drawn) [Metixene hydrochloride] the z.score.t [1] was −0.9654.
With CCCCC1(COC(=O)CCC(=O)O)C(=O)N(c2ccccc2)N(c2ccccc2)C1=O [Suxibuzone] the z.score.t [1] was 0.9352.
CC(=O)OCC1=C(C(=O)O)N2C(=O)[C@@H](NC(=O)Cc3cccs3)[C@H]2SC1 [Cephalothin sodium salt] was tested, and the z.score.t [1] was −1.359.
C[C@H]1[C@H](C)CC[C@]2(C(=O)O)CC[C@]3(C)C(=CC[C@@H]4[C@@]5(C)CC[C@H](O)C(C)(C)[C@@H]5CC[C@]43C)[C@H]12 [Ursolic acid] showed a z.score.t [1] of −0.765.
For O=C(CCCN1CC=C(n2c(=O)[nH]c3ccccc32)CC1)c1ccc(F)cc1 [Droperidol], the z.score.t [1] was 1.197.
In the case of C[C@@H]1C[C@H]2[C@@H]3C[C@H](F)C4=CC(=O)C=C[C@]4(C)[C@@]3(Cl)[C@@H](O)C[C@]2(C)[C@H]1C(=O)COC(=O)C(C)(C)C [Clocortolone pivalate], the z.score.t [1] is reported as −0.7388.
COc1c2occc2cc2ccc(=O)oc12 [Methoxy-8-psoralen] gave a z.score.t [1] of 1.124.
Mephentermine hemisulfate showed a z.score.t of −0.2359.
Compound CC1CC(OC(=O)c2ccccc2O)CC(C)(C)C1 (stereo not drawn) [Homosalate] has a z.score.t [1] of −0.751.
Work on OCCN1CCN(CCCN2c3ccccc3Sc3ccc(C(F)(F)F)cc32)CC1 [Fluphenazine dihydrochloride] yielded a z.score.t [1] of −1.847.
In the case of NS(=O)(=O)c1cc2c(cc1C(F)(F)F)NC(Cc1ccccc1)NS2(=O)=O (stereo not drawn) [Bendroflumethiazide], the z.score.t [1] is reported as −1.107.
C[N+](C)(C)CCCCCCCCCC[N+](C)(C)C [Decamethonium bromide] showed a z.score.t [1] of −1.558.
In the case of CCn1nc(C(=O)O)c(=O)c2cc3c(cc21)OCO3 [Cinoxacin], the z.score.t [1] is reported as 0.9525.
Cc1ccsc1/C=C/C1=NCCCN1C [Morantel tartrate] showed a z.score.t of −0.06439.
With CC[N+](CC)(CC(=O)Nc1c(C)cccc1C)Cc1ccccc1 [Denatonium benzoate] the z.score.t [1] was −1.472.
Work on CC(C)(CO)[C@@H](O)C(=O)NCCCO [Panthenol (D)] yielded a z.score.t [1] of 0.6517.
For CN1CCN(CC(=O)N2c3ccccc3C(=O)Nc3cccnc32)CC1 [Pirenzepine dihydrochloride], the z.score.t [1] was −0.07933.
Compound c1ccc2c(c1)CCCC2C1=NCCN1 (stereo not drawn) [Tetrahydrozoline hydrochloride] has a z.score.t [1] of 0.81.
Timolol maleate salt was tested, and the z.score.t [1] was −0.6395.
For CO[C@]12C[C@@H](COC(=O)c3cncc(Br)c3)CN(C)[C@@H]1Cc1cn(C)c3cccc2c13 [Nicergoline], the z.score.t [1] was −0.2131.
Compound NS(=O)(=O)c1cc2c(cc1Cl)N=CNS2(=O)=O [Chlorothiazide] has a z.score.t [1] of 1.171.
Compound CN1CCc2cc3c(cc2[C@H]1[C@@H]1OC(=O)c2c1ccc1c2OCO1)OCO3 [Bicuculline (+)] has a z.score.t of 0.5437.
Compound Cc1ccc(N(CC2=NCCN2)c2cccc(O)c2)cc1 [Phentolamine hydrochloride] has a z.score.t [1] of −0.1241.
C=CCc1ccccc1OCC(O)CNC(C)C (stereo not drawn) [Alprenolol hydrochloride] showed a z.score.t [1] of −0.2572.
COc1ccc(C(=O)c2ccccc2)c(O)c1 [Oxybenzone] showed a z.score.t [1] of −0.6594.
With CC(=O)OCC(=O)[C@@]1(O)[C@H](C)C[C@H]2[C@@H]3CCC4=CC(=O)C=C[C@]4(C)[C@@]3(F)[C@@H](O)C[C@@]21C [Dexamethasone acetate] the z.score.t [1] was 0.4486.
For CN[C@@H]1[C@@H](O[C@H]2O[C@H](CO)[C@@H](N)[C@H](O)[C@H]2O)OC2C[C@@H](N)[C@@H](O[C@H]3[C@H](O)[C@@H](O)[C@H](N)C[C@@H]3N)OC2[C@@H]1O (stereo partly drawn) [Apramycin], the z.score.t [1] was 0.1828.
In the case of CCCCc1oc2ccccc2c1C(=O)c1cc(I)c(OCCN(CC)CC)c(I)c1 [Amiodarone hydrochloride], the z.score.t [1] is reported as −1.609.
For Pridinol methanesulfonate salt, the z.score.t was −0.7183.
Work on CCN(CC)CCc1nc(-c2ccccc2)no1.O=C(O)CC(O)(CC(=O)O)C(=O)O [Oxalamine citrate salt] yielded a z.score.t [1] of −0.3023.
Work on COc1ccc2cc([C@H](C)C(=O)O)ccc2c1 [Naproxen] yielded a z.score.t [1] of 1.745.
With CCN(CC)CC#CCOC(=O)C(O)(c1ccccc1)C1CCCCC1 (stereo not drawn) [Oxybutynin chloride] the z.score.t [1] was −0.7013.
COC(=O)C1=CCCN(C)C1 [Arecoline hydrobromide] gave a z.score.t of −0.7049.
In the case of CC[C@H]1CN2CCc3cc(OC)c(OC)cc3[C@@H]2C[C@@H]1C[C@H]1NCCc2cc(OC)c(OC)cc21 [Emetine dihydrochloride], the z.score.t [1] is reported as −1.991.
C#C[C@]1(O)CC[C@H]2[C@@H]3CCC4=CC(=O)CC[C@@H]4[C@H]3CC[C@@]21C [Norethindrone] showed a z.score.t [1] of 0.2479.
C=CCSCC1Nc2cc(Cl)c(S(N)(=O)=O)cc2S(=O)(=O)N1 (stereo not drawn) [Althiazide] showed a z.score.t [1] of −0.1239.
In the case of C[C@]12C=CC(=O)C=C1CC[C@@H]1[C@@H]2C(=O)C[C@@]2(C)[C@H]1CC[C@]2(O)C(=O)CO [Prednisone], the z.score.t [1] is reported as −0.6093.
In the case of CNC[C@H](O)[C@@H](O)[C@H](O)[C@H](O)CO [Meglumine], the z.score.t [1] is reported as −0.9741.
Cc1cc2nc3c(=O)[nH]c(=O)nc-3n(C[C@H](O)[C@H](O)[C@H](O)CO)c2cc1C [Riboflavine] gave a z.score.t [1] of 1.211.
For Cc1oncc1C(=O)Nc1ccc(C(F)(F)F)cc1 [Leflunomide], the z.score.t [1] was 0.9178.
O=C(O)Cc1ccccc1Nc1c(Cl)cccc1Cl [Diclofenac sodium] gave a z.score.t [1] of 0.563.
Work on NC(=O)NC1NC(=O)NC1=O (stereo not drawn) [Allantoin] yielded a z.score.t [1] of 0.8036.
COc1cc2c(c(OC)c1OC)-c1ccc(O)c(=O)cc1C(N)CC2 (stereo not drawn) [Trimethylcolchicinic acid] was tested, and the z.score.t was −0.07901.
CCC1=C[C@@H]2CN3CCc4c([nH]c5ccccc45)[C@@](C(=O)OC)(C2)[C@@H]13 [Catharanthine] showed a z.score.t of 0.2625.
NCCc1c[nH]c2ccc(O)cc12 [Serotonin hydrochloride] was tested, and the z.score.t was −1.195.
With C[C@@H]1[C@H](O)[C@@H](C)/C=C/C=C/C=C/C=C/C=C/C=C/C=C/[C@H](O[C@@H]2O[C@H](C)[C@@H](O)[C@H](N)[C@@H]2O)C[C@@H]2O[C@](O)(C[C@@H](O)C[C@@H](O)[C@H](O)CC[C@@H](O)C[C@@H](O)CC(=O)O[C@H]1C)C[C@H](O)[C@H]2C(=O)O [Amphotericin B] the z.score.t [1] was 0.7312.
Compound CC(=O)Nc1cc2ccccc2oc1=O [3-Acetamidocoumarin] has a z.score.t [1] of −1.551.
In the case of C[C@@H]1CCC[C@H](C)N1NC(=O)c1ccc(Cl)c(S(N)(=O)=O)c1 [Clopamide], the z.score.t [1] is reported as 0.7847.
CN(C)CCOC(c1ccccc1)c1ccccc1 [Diphenhydramine hydrochloride] showed a z.score.t [1] of −0.5689.
CN1CCC2=C[C@H](O)[C@H]3OC(=O)c4cc5c(cc4[C@H]3[C@@H]21)OCO5 [Hippeastrine hydrobromide] showed a z.score.t of 1.178.
CN1[C@@H](C[C@@H](O)c2ccccc2)CCC[C@H]1C[C@H](O)c1ccccc1.Cl [Lobelanidine hydrochloride] showed a z.score.t of −0.3319.
In the case of COc1cc(/C=C/C(=O)N2CCC=CC2=O)cc(OC)c1OC [Piperlongumine], the z.score.t is reported as −2.024.
O=C1C=C2C=C[C@@H]3C[C@@]2(O1)[C@H]1CCCCN31 [Securinine] was tested, and the z.score.t was −0.9042.
For CCCNC(C)C(=O)Nc1c(C)csc1C(=O)OC (stereo not drawn) [Articaine hydrochloride], the z.score.t [1] was 0.8481.
For CCCCOc1ccc(OCCCN2CCOCC2)cc1 [Pramoxine hydrochloride], the z.score.t [1] was −1.058.
Cc1cc(C(C)(C)CC(C)(C)C)ccc1OCCOCC[N+](C)(C)Cc1ccccc1.[Cl-] [Methyl benzethonium chloride] was tested, and the z.score.t was −1.169.
COc1cc([C@@H]2c3cc4c(cc3[C@@H](O[C@@H]3O[C@@H]5CO[C@@H](C)O[C@H]5[C@H](O)[C@H]3O)[C@H]3COC(=O)[C@H]23)OCO4)cc(OC)c1O [Etoposide] showed a z.score.t [1] of −1.576.
Work on CS(=O)(=O)Nc1ccc([N+](=O)[O-])cc1Oc1ccccc1 [Nimesulide] yielded a z.score.t [1] of 2.111.
In the case of C[C@@H]1[C@H](O)[C@@H](C)/C=C/C=C/CC/C=C/C=C/C=C/C=C/C(O[C@H]2O[C@H](C)[C@@H](O)[C@H](N)[C@@H]2O)CC2O[C@](O)(CC(O)C(O)CCC(O)CC(O)CC(O)CC(=O)O[C@H]1C)CC(O)C2C(=O)O (stereo partly drawn) [Nystatine], the z.score.t is reported as 1.992.
CCC(C)(C)C(=O)O[C@H]1C[C@@H](C)C=C2C=C[C@H](C)[C@H](CC[C@@H]3C[C@@H](O)CC(=O)O3)[C@H]21 [Simvastatin] showed a z.score.t [1] of −0.9395.
Work on CN1CCc2cccc3c2[C@H]1Cc1ccc(O)c(O)c1-3.CN1CCc2cccc3c2[C@H]1Cc1ccc(O)c(O)c1-3.Cl.Cl.O yielded a z.score.t of −1.904.
C[N+]1(C)CCC(=C(c2ccccc2)c2ccccc2)CC1 [Diphemanil methylsulfate] gave a z.score.t [1] of 0.05523.
For COc1cc(NS(=O)(=O)c2ccc(N)cc2)nc(OC)n1 [Sulfadimethoxine], the z.score.t [1] was 0.1469.
O=c1[nH]cnc2c1ncn2[C@H]1CC[C@@H](CO)O1 [Didanosine] was tested, and the z.score.t [1] was −0.07933.
O=C(O)CCCc1ccc(N(CCCl)CCCl)cc1 [Chlorambucil] showed a z.score.t of −1.263.
Work on Fc1ccc([C@@H]2CCNC[C@H]2COc2ccc3c(c2)OCO3)cc1 [Paroxetine Hydrochloride] yielded a z.score.t [1] of −1.138.
C[C@H](O)C(=O)Nc1c(I)c(C(=O)NC(CO)CO)c(I)c(C(=O)NC(CO)CO)c1I [Iopamidol] was tested, and the z.score.t [1] was −1.025.
C[C@H](CCC(=O)NCC(=O)O)[C@H]1CC[C@H]2[C@@H]3[C@H](O)C[C@@H]4C[C@H](O)CC[C@]4(C)[C@H]3C[C@H](O)[C@]12C [Glycocholic acid] showed a z.score.t [1] of −0.8478.
Work on C[C@H](CS)C(=O)N1CCC[C@H]1C(=O)O [Captopril] yielded a z.score.t [1] of 2.207.
With CNCCc1ccccn1.CS(=O)(=O)O.CS(=O)(=O)O [Betahistine mesylate] the z.score.t [1] was −0.6301.

Source: US20260053861A1, “CELL COMPOSITIONS AND METHODS OF USING THE SAME” (THE REGENTS OF THE UNIVERSITY OF CALIFORNIA, priority 2022, published 2026)
